Source: patent US7351737B2, “4-[(8-substituted)-6-chromanoyl]-and 4-[8-substituted)-chroman-6-YL-ethynyl]-benzoic and phenylacetic acids, their esters and salts having cytochrome P450RAI inhibitory activity” (Allergan, Inc., priority 2002, dated 2008)

Key:
P450RAI-1 = target: T1, P450RAI-1 (Homo sapiens, UniProt O43174); experiment: P450RAI-1 cell-based inhibitor assay ([3H]-RA metabolism, intact cells); conditions: P450RAI-1 stably transfected HeLa cells, 3 hours at 37° C., all-trans-RA metabolism; read-out: P450RAI INHIBITION DATA RAI-1 Intact cells IC50
T1 construct: expressed in transfected cells; host or cells: HeLa
T1 sequence (O43174 1-497): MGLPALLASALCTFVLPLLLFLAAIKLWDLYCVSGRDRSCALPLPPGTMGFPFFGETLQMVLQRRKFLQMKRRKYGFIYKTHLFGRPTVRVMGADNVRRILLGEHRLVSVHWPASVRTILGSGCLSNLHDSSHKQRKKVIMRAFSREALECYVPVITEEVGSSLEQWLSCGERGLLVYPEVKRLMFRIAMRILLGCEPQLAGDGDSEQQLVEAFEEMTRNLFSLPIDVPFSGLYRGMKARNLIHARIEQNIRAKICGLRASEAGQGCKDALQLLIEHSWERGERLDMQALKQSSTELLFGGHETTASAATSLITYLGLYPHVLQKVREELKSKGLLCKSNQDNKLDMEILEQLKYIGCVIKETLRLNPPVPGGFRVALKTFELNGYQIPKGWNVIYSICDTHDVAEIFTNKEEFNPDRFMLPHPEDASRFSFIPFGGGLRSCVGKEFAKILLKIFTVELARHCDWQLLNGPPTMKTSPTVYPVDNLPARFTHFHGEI
Procedure: FIG. 1 is a schematic representation of the P450RAI cell based assay utilized to evaluate the ability of the compounds of the invention to inhibit the Cytochrome P450RAI enzyme.
P450RAI-1 and P450RAI-2 Cell-Based Inhibitor Assay:
P450RAI-1 stably transfected HeLa cells, or P450RAI-2 stably transfected HeLa cells, as applicable, are maintained in […] tissue culture dishes in Modified Eagle's Medium (MEM) containing 10% Fetal Bovine Serum (FBS) and 100 μg/ml hygromycin. Exponentially growing cells are harvested by incubating in trypsin. Cells are then washed with 1X Phosphate Buffered Saline (PBS) and plated in a 48-well plate at 5×10^5 cells in 0.2 ml MEM medium containing 10% FBS and 0.05 μCi [^3H]-RA in the presence or absence of increasing concentrations of the test compounds. The compounds are diluted in 100% DMSO and then added in triplicate wells at either 10, 1 or 0.1 μM final concentration. As a positive control for RA metabolism inhibition, cells are also incubated with ketoconazole at 100, 10 and 1 μM. Cells are incubated for 3 hours at 37° C. The retinoids are then extracted using the procedure of Bligh et al. (1959) Canadian Journal of Biochemistry 37, 911-917, modified by using methylenechloride instead of chloroform. The publication Bligh et al. (1959) Canadian Journal of Biochemistry 37, 911-917 is specifically incorporated herein by reference. The water soluble radioactivity is quantified using a β-scintillation counter. IC50 values represent the concentration of inhibitor required to inhibit all-trans-RA metabolism by 50 percent and are derived manually from log-transformed data.

RARα [1] = target: T2, RARα (Homo sapiens, UniProt P10276); experiment: ligand binding assay, RARα; conditions: last item of cell, read-out: RAR α Kd
T2 sequence (P10276 1-462): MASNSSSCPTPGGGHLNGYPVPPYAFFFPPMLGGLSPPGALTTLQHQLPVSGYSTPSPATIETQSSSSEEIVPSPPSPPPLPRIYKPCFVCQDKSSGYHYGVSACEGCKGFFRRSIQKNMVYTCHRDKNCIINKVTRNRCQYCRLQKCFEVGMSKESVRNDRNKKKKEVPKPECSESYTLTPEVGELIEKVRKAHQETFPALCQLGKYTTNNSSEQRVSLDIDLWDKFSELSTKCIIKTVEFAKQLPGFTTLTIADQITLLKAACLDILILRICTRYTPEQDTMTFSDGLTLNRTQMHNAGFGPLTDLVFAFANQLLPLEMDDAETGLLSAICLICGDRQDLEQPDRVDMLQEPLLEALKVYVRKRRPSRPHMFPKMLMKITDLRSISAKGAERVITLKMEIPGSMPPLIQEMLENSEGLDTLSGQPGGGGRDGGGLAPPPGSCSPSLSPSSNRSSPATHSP
Excerpt: (§1) Assays described below measure the ability of a compound to bind to, and/or activate various retinoid receptor subtypes. When in these assays a compound binds to a given receptor subtype and activates the transcription of a reporter gene through that subtype, then the compound is considered an agonist of that receptor subtype. […] In the below described assays the ability of the compounds to bind to RARα, RARβ, RARγ, RXRα, RXRβ and RXRγ receptors, and the ability or inability of the compounds to activate transcription of a reporter gene through these receptor subtypes can be tested.
(§2) A holoreceptor transactivation assay and a ligand binding assay which measure the antagonist/agonist like activity of the compounds of the invention, or their ability to bind to the several retinoid receptor subtypes, respectively, are described in published PCT Application No. WO WO93/11755 (particularly on pages 30-33 and 37-41) published on Jun. 24, 1993, the specification of which is also incorporated herein by reference. A detailed experimental procedure for holoreceptor transactivations has been described by Heyman et al. Cell 68, 397-406, (1992); Allegretto et al. J. Biol. Chem. 268, 26625-26633, and Mangelsdorf et al. The Retinoids: Biology, Chemistry and Medicine, pp 319-349, Raven Press Ltd., New York, which are expressly incorporated herein by reference. The results obtained in this assay are expressed in EC50 numbers, as they are also in the chimeric receptor transactivation assay. The results of ligand binding assay are expressed in Kd numbers. (See Cheng et al. Biochemical Pharmacology Vol. 22 pp 3099-3108, expressly incorporated herein by reference.)
The results of the ligand binding assay for several preferred compounds of the invention are included in Table 1.

RARα [2] = target: T3, RARα (Homo sapiens, UniProt P10276); experiment: chimeric receptor transactivation assay, RARα; type: cell-based; conditions: for RAR α (EFFICACY): value in brackets
T3 sequence (P10276 183-417 limits assumed): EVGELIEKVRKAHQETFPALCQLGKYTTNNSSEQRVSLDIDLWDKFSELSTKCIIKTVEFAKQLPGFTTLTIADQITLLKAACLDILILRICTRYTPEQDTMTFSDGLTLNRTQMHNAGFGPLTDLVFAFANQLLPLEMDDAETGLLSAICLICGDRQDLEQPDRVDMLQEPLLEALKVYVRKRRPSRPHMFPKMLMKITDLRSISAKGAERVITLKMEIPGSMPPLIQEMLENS
Excerpt: as §1
As far as specific assays are concerned, a chimeric receptor transactivation assay which tests for agonist-like activity in the RARα, RARβ, and RARγ, receptor subtypes, and which is based on work published by Feigner P. L. and Holm M. (1989) Focus, 112 is described in detail in U.S. Pat. No. 5,455,265. The specification of U.S. Pat. No. 5,455,265 is hereby expressly incorporated by reference. The numeric results obtained with several preferred compounds of this invention in this assay are shown below in Table 1.
as §2

Structure (SMILES) | IC50 (P450RAI-1) [nM] | Kd (RARα [1]) [nM] | RAR α (EFFICACY) (RARα [2]) | EC50 (RARα [2]; first item of cell EC50/(EFFICACY)/Kd, read-out: RAR α EC50) [nM]
C#Cc1cc(C(=O)Oc2ccc(CC(=O)O)cc2)cc2c1OC(C)(C)CC2(C)C [Compound 1, 8-Ethynyl-2,2,4,4-tetramethyl-chroman-6-carboxylic acid 4-carboxymethyl-phenyl ester] | 500 | > 10000 | – | –
C#Cc1cc(C(=O)Oc2ccc(CC(=O)OCC)cc2)cc2c1OC(C)(C)CC2(C)C [Compound 2, 8-Ethynyl-2,2,4,4-tetramethyl-chroman-6-carboxylic acid 4-ethoxycarbonylmethyl-phenyl ester] | 6000 | > 10000 | – | –
C#Cc1cc(C(=O)Oc2ccc(CC(=O)OCOC(C)=O)cc2)cc2c1OC(C)(C)CC2(C)C [Compound 3, 8-Ethynyl-2,2,4,4-tetramethyl-chroman-6-carboxylic acid 4-acetoxymethoxycarbonylmethyl-phenyl ester] | 500 | > 10000 | – | –
C#Cc1cc(C(=O)Oc2ccc(CC(=O)OCOC(C)=O)c(F)c2)cc2c1OC(C)(C)CC2(C)C [Compound 5, 8-Ethynyl-2,2,4,4-tetramethyl-chroman-6-carboxylic acid 4-acetoxymethoxycarbonylmethyl-3-fluoro-phenyl ester] | 75 | 4680 | 10 | –
CC(=O)OCOC(=O)Cc1ccc(OC(=O)c2cc(C#N)c3c(c2)C(C)(C)CC(C)(C)O3)cc1F [Compound 33, 8-Cyano-2,2,4,4-tetramethyl-chroman-6-carboxylic acid 4-acetoxymethoxycarbonylmethyl-3-fluoro-phenyl ester] | 100 | > 10000 | – | –

Continued, values first:

IC50 (P450RAI-1) [nM] | Kd (RARα [1]) [nM] | RAR α (EFFICACY) (RARα [2]) | EC50 (RARα [2]; first item of cell EC50/(EFFICACY)/Kd, read-out: RAR α EC50) [nM] | Structure (SMILES)
100 | 3470 | 20 | – | C#Cc1cc(C(=O)Oc2ccc(CC(=O)O)c(F)c2)cc2c1OC(C)(C)CC2(C)C [Compound 4, 8-Ethynyl-2,2,4,4-tetramethyl-chroman-6-carboxylic acid-4-carboxymethyl-3-fluoro-phenyl ester]
100 | > 10000 | – | – | CC1(C)CC(C)(C)c2cc(C(=O)Oc3ccc(CC(=O)O)c(F)c3)cc(C#N)c2O1 [Compound 32, 8-Cyano-2,2,4,4-tetramethyl-chroman-6-carboxylic acid-4-carboxymethyl-3-fluoro-phenyl ester]
10 | > 10000 | 15 | 129 | C#Cc1cc(C#Cc2ccc(CC(=O)O)cc2)cc2c1OC(C)(C)CC2(C)C [Compound 40, [4-(8-Ethynyl-2,2,4,4-tetramethyl-chroman-6-ylethynyl)-phenyl]-acetic acid]
4 | > 10000 | 10 | – | C#Cc1cc(C#Cc2ccc(CC(=O)O)c(F)c2)cc2c1OC(C)(C)CC2(C)C [Compound 41, [4-(8-Ethynyl-2,2,4,4-tetramethyl-chroman-6-ylethynyl)-2-fluoro-phenyl]-acetic acid]
18 | 7240 | – | – | C#CCc1cc(C#Cc2ccc(CC(=O)O)cc2)cc2c1OC(C)(C)CC2(C)C [Compound 49]
